What was measured:
Pyt 5 = assay: visual assessment of β-galactosidase activity (blue color intensity) on X-gal buffered CAA medium, mutant Pyt 5; assay type: cell-based, P. fluorescens ATCC 17400; design: β-galactosidase activities: key: -: no induction; (+): faintish induction; +: weak induction; ++: highly induction; +++: extremely strong induction
Source text: (§1) So, Pyt 6 was chosen as a good candidate to develop the biosensor test in the further study.
(§2) Table 1. Influence of added sugars in buffered (pH 7) CAA medium for the β-galactosidase activities of P. fluorescens ATCC 17400 derived mutants on visual assessment of blue color intensity

Pyt 6 [1] = assay: visual assessment of β-galactosidase activity (blue color intensity) on X-gal buffered CAA medium, mutant Pyt 6; as to β-galactosidase activities: key: -: no induction; (+): faintish induction; +: weak induction; ++: highly induction; +++: extremely strong induction; assay type: cell-based, P. fluorescens ATCC 17400
Source text: as §1, §2

Pyt 6 [2] = assay: semi-quantitative high-throughput X-Gal colorimetric trehalose assay with Pyt 6; assay type: cell-based, Pseudomonas fluorescens; conditions: semi-quantitative method; for visible induction: Pyt 6, sugars (2 %), X-Gal, 18 hours at 27°C
Protocol: For instance, the Inventors have developed a semi-quantitative method of assaying trehalose in a sample. Said method comprises the steps consisting of: • a) contacting the sample with a suspension of Pyt 6, precultured to exponential growth, at OD 600 nm = about 0.1, with a ratio about 1:20 (preferably 10 µl of the sample, optionally diluted, are contacted with 190 µl of the Pyt 6 suspension atOD600nm=0.1); • b) adding about 2 µl X-Gal (20 mg/ml); • c) incubation the mixture during 16-20 hours, preferably18 hours, at 27°C (preferably with agitation at 150 rpm), • c) observing and/or measuring the blue coloration elicited by X-Gal processing; and • d) comparing the blue coloration observed in step c) with that elicited by a standard of trehalose contacted with a suspension of Pyt 6, precultured to exponential growth, at OD 600 nm = about 0.1, with a ratio 1:10 (preferably 10 µl of the standards are contacted with 190 µl of the Pyt 6 suspension at OD 600 nm = 0.1) and X-Gal (2 µl, 20 mg/ml); whereby if the blue coloration observed in step c) is above that of observed with the standard, then the concentration of trehalose in the sample is above trehalose concentration in the standard.
From the knowledge derived from the use of the qualitative and quantitative methods, the inventors have developed a semi-quantitative method that allows a high throughput pre-screening of the presence of trehalose in liquid samples. The invention helps also to the check quickly the quality of controls without trehalose before applying the quantitative method. The semi-quantitative method combines a direct colorimetric observation with the use of the chromogenic X-Gal and the conditions of Pyt 6 culture derived from the quantitative method. The detection limit is 0.5 mM trehalose in 10 µl of the tested liquid sample (biological or other extracts).
This method was carried out according to the following steps : • preculture of Pyt 6 to exponential growth in the BCAA medium at 27°C, • distribution of 190 µl of this Pyt 6 suspension at OD 600 nm = 0.1 in wells of a 96 well microtiter plate , • incorporation of 2 µl X-Gal (20 mg/ml) in each well, • incorporation of 10 µl of a standard range of trehalose (0.1 mM to 2 mM trehalose) or 10 µl of tested samples or 10 µl of pure water or culture medium for the blank control, • incubation during 18 hours at 150 rpm at 27°C, • comparative observation of the intensity of the blue color in wells, • the lower detection limit is 0.5 mM trehalose in the tested sample.

[3] = effect of boiling on trehalose, read out with Pyt 6 luminescence (Figure 8); assay type: physicochemical; conditions: boiling of the samples, 5 min at 100°C (Figure 8)
Protocol: The extract derived from 1 g of Ggt mycelium cultured for 7 days were tested. For the positive control, 10 ng of purified β-gal and 1 mM trehalose solution with Pyt 6 were assessed. Results shown are mean values from 3 repeated counting. Error bars indicate standard deviations.
The fungal extraction was performed as follows. Mycelium are pre-cultured (Gaeumannomyces. graminis (Ggt): 5 days on PDA (Potato Dextrose 39 g/L, agar 20 g/L); Laccaria bicolor. (Lb) 10 days on P5 (0.25 g Di NH4 tartrate, 0.5 g KH2PO4, 0.25 g MgSO4 7 H2O, 2.5 g maltose D+, 10 g glucose D+, 0.5 ml thiamine-HCl (100 mg/L), 0.5 ml Kanieltra oligoelement solution (100 ml/L), 10 g agar, 480 ml H2O, adjusted pH to 5.5 with HCl or NaOH). Growing mycelium plugs are explanted to BCAA agar (as defined above) with cellophane membrane or the glass bead/membrane system with liquid BCAA. The cellophane membranes were previously boiled in ultra-pure water + EDTA (372 mg.l-1) during 15 minutes, washed abundantly with ultra-pure water and sterilised by autoclaving twice. […]
Boiling of the fungal extracts is expected to denature endogenous β-gal and therefore avoid interference with trehalose measurement. […] Additionally, it was observed that when Ggt mycelium extract (diluted to 1/10) was boiled, no endogenous β-galactosidase activity was ever detected (Figure 8).

## OC[C@H]1O[C@H](O[C@H]2[C@H](O)[C@@H](O)C(O)O[C@@H]2CO)[C@H](O)[C@@H](O)[C@@H]1O (mixture of isomers) [maltose]
Pyt 5; Pyt 5, 0.2 % maltose added to buffered (pH 7) CAA medium
  β-galactosidase activities: ++
Pyt 5; Pyt 5, 0.5% maltose added to buffered (pH 7) CAA medium
  β-galactosidase activities: ++
Pyt 5; Pyt 5, visual assessment on X-gal medium
  treA induction: weak induction
Pyt 6 [1]; Pyt 6, 0.2 % maltose added to buffered (pH 7) CAA medium
  β-galactosidase activities: -
Pyt 6 [1]; Pyt 6, 0.5% maltose added to buffered (pH 7) CAA medium
  β-galactosidase activities: -
Pyt 6 [1]; strain as received under the label Pyt 6 (storage tubes inverted)
  treA expression: triggered
Pyt 6 [2]
  visible induction: no visible induction

## O=C[C@@H](O)[C@H](O)[C@H](O)CO [arabinose]
Pyt 6 [2]
  visible induction: no visible induction

## O=C(CO)[C@@H](O)[C@H](O)[C@H](O)CO [fructose]
Pyt 6 [2]
  visible induction: no visible induction

## O=C[C@H](O)[C@@H](O)[C@@H](O)[C@H](O)CO [galactose]
Pyt 6 [2]
  visible induction: no visible induction

## OCC(O)CO [glycerol]
Pyt 6 [2]
  visible induction: no visible induction

## OC[C@H]1O[C@H](O[C@H]2O[C@H](CO)[C@@H](O)[C@H](O)[C@H]2O)[C@H](O)[C@@H](O)[C@@H]1O [trehalose, Trehalose]
Pyt 5; Pyt 5, 10 mM trehalose added to buffered (pH 7) CAA medium
  β-galactosidase activities: +++
Pyt 5; Pyt 5, 10mM trehalose together with 0.2 % glucose
  β-galactosidase activities: +++
Pyt 5; Pyt 5, 10 mM trehalose together with 0.2 % maltose
  β-galactosidase activities: +++
Pyt 5; Pyt 5, 10 mM trehalose together with 0.5% maltose
  β-galactosidase activities: +++
Pyt 5; Pyt 5, 10 mM trehalose together with 2 % glucose
  β-galactosidase activities: +++
Pyt 5; strain as received under the label Pyt 5 (storage tubes inverted)
  treA expression: specifically induced
Pyt 6 [1]; Pyt 6, 10 mM trehalose added to buffered (pH 7) CAA medium
  β-galactosidase activities: +++
Pyt 6 [1]; Pyt 6, 10mM trehalose together with 0.2 % glucose
  β-galactosidase activities: +++
Pyt 6 [1]; Pyt 6, 10 mM trehalose together with 0.2 % maltose
  β-galactosidase activities: +++
Pyt 6 [1]; Pyt 6, 10 mM trehalose together with 0.5% maltose
  β-galactosidase activities: +++
Pyt 6 [1]; Pyt 6, 10 mM trehalose together with 2 % glucose
  β-galactosidase activities: +++
Pyt 6 [1]; Pyt 6, trehalose 10^-3 M, visual assessment on X-gal medium
  treA induction: treA induction
Pyt 6 [2]; trehalose in 10 µl of the tested liquid sample
  detection limit: 0.5 mM
[3]
  stability to boiling: not affected

Reference: patent EP1857556A1, “Genetically engineered Pseudomonas fluorescens strains as biosensor for trehalose detection and quantification in a sample” (INSTITUT NATIONAL DE LA RECHERCHE AGRONOMIQUE (INRA), priority 2006, dated 2007)
